From patent US10405547B2, “Substituted cyclic amides as herbicides” (FMC Corporation, priority 2015, dated 2019)

Tests used:
Format in all cases: in vivo
[1] = test system: ragweed (common ragweed, Ambrosia elatior); test: Test A postemergence, ragweed; conditions: 0 to 100 scale (0 no effect, 100 complete control)
Outline: (§1)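 Greenhouse test: compounds in solvent with surfactant sprayed onto loam–sand soil after planting (preemergence) or onto plants 2-10 cm at the one- to two-leaf stage (postemergence). Injury visually rated versus untreated controls after about 10 days on a 0-100 scale (100 = complete control).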

[2] = test system: ryegrass, Italian (Lolium multiflorum); test: Test A postemergence, Italian ryegrass; conditions: 0 to 100 scale (0 no effect, 100 complete control)
Outline: as §1

[3] = test system: ragweed (common ragweed, Ambrosia elatior); test: Test A preemergence, ragweed; conditions: 0 to 100 scale (0 no effect, 100 complete control)
Outline: as §1

[4] = test system: ducksalad (Heteranthera limosa); test: Test B flooded paddy test, ducksalad; conditions: 250 g ai/ha, applied to paddy water, visual rating after 13 to 15 days, scale 0 (no effect) to 100 (complete control)
Outline: (§2)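 Greenhouse pots flooded to 3 cm above soil at time of treatment received compound via the water, which stayed at that level.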

[5] = test system: pigweed (Amaranthus retroflexus); test: Test A postemergence, pigweed; conditions: 0 to 100 scale (0 no effect, 100 complete control)
Outline: as §1

kochia (Kochia scoparia) [6] = test: Test A postemergence, kochia; conditions: 0 to 100 scale (0 no effect, 100 complete control)
Outline: as §1

[7] = test system: sedge, umbrella (small-flower umbrella sedge, Cyperus difformis); test: Test B flooded paddy test, umbrella sedge; conditions: 250 g ai/ha, applied to paddy water, visual rating after 13 to 15 days, scale 0 (no effect) to 100 (complete control)
Outline: as §2

[8] = test system: pigweed (Amaranthus retroflexus); test: Test A preemergence, pigweed; conditions: 0 to 100 scale (0 no effect, 100 complete control)
Outline: as §1

[9] = test system: foxtail, giant (Setaria faberii); test: Test A postemergence, giant foxtail; conditions: 0 to 100 scale (0 no effect, 100 complete control)
Outline: as §1

[10] = test system: foxtail, giant (Setaria faberii); test: Test A preemergence, giant foxtail; conditions: 0 to 100 scale (0 no effect, 100 complete control)
Outline: as §1

[11] = test system: wheat (Triticum aestivum); test: Test A postemergence, wheat; conditions: 0 to 100 scale (0 no effect, 100 complete control)
Outline: as §1

[12] = test system: barnyardgrass (Echinochloa crus-galli); test: Test A postemergence, barnyardgrass; conditions: 0 to 100 scale (0 no effect, 100 complete control)
Outline: as §1

rice (Oryza sativa) = test: Test B flooded paddy test, rice; conditions: 250 g ai/ha, applied to paddy water, visual rating after 13 to 15 days, scale 0 (no effect) to 100 (complete control)
Outline: as §2

[13] = test system: barnyardgrass (Echinochloa crus-galli); test: Test A preemergence, barnyardgrass; conditions: 0 to 100 scale (0 no effect, 100 complete control)
Outline: as §1

[14] = test system: galium (catchweed bedstraw, Galium aparine); test: Test A postemergence, galium; conditions: 0 to 100 scale (0 no effect, 100 complete control)
Outline: as §1

[15] = test system: blackgrass (Alopecurus myosuroides); test: Test A postemergence, blackgrass; conditions: 0 to 100 scale (0 no effect, 100 complete control)
Outline: as §1

[16] = test system: barnyardgrass (Echinochloa crus-galli); test: Test B flooded paddy test, barnyardgrass; conditions: 250 g ai/ha, applied to paddy water, visual rating after 13 to 15 days, scale 0 (no effect) to 100 (complete control)
Outline: as §2

[17] = test system: ryegrass, Italian (Lolium multiflorum); test: Test A preemergence, Italian ryegrass; conditions: 0 to 100 scale (0 no effect, 100 complete control)
Outline: as §1

kochia (Kochia scoparia) [18] = test: Test A preemergence, kochia; conditions: 0 to 100 scale (0 no effect, 100 complete control)
Outline: as §1

corn (Zea mays) = test: Test A postemergence, corn; conditions: 0 to 100 scale (0 no effect, 100 complete control)
Outline: as §1

[19] = 125 g ai/ha, visual injury, approximately 10 days
[20] = 500 g ai/ha, visual injury, approximately 10 days

Row | Structure (SMILES) | Plant response rating, Ragweed [1, 19] | Plant response rating, Ryegrass, Italian [2, 19] | Plant response rating, Ragweed ([3]; 125 g ai/ha) | Plant response rating, Ducksalad (Flood) [4] | Plant response rating, Pigweed [5, 19] | Plant response rating, Kochia (kochia (Kochia scoparia) [6]; [19]) | Plant response rating, Sedge, Umbrella (Flood) [7] | Plant response rating, Pigweed ([8]; 125 g ai/ha) | Plant response rating, Foxtail, Giant [9, 19] | Plant response rating, Foxtail, Giant ([10]; 125 g ai/ha) | Plant response rating, Wheat [11, 19] | Plant response rating, Barnyardgrass [12, 19] | Plant response rating, Rice (Flood) (rice (Oryza sativa)) | Plant response rating, Barnyardgrass ([13]; 125 g ai/ha) | Plant response rating, Galium [14, 19] | Plant response rating, Blackgrass [15, 19] | Plant response rating, Barnyardgrass (Flood) [16] | Plant response rating, Ryegrass, Italian ([17]; 125 g ai/ha) | Plant response rating, Kochia (kochia (Kochia scoparia) [18]; 125 g ai/ha) | Plant response rating, Corn (corn (Zea mays); [19]) | also measured
1 | CN1CC(c2cccc(Oc3ccc(F)cn3)c2)C(C(=O)Nc2cccc(F)c2C#N)C1=O (single isomer, unassigned) [Compound 89] | 0 | 20 | 0 | 70 | 50 | 0 | 0 | 60 | 70 | 90 | 0 | 70 | 0 | 70 | 40 | 20 | 0 | 40 | 0 | 0 | Plant response rating, Ragweed ([1]; 31 g ai/ha): 0; Plant response rating, Ryegrass, Italian ([2]; 31 g ai/ha): 0; Plant response rating, Ragweed ([3]; 31 g ai/ha): 0; Plant response rating, Pigweed ([5]; 31 g ai/ha): 0; Plant response rating, Kochia (kochia (Kochia scoparia) [6]; 31 g ai/ha): 0; Plant response rating, Pigweed ([8]; 31 g ai/ha): 0; Plant response rating, Foxtail, Giant ([9]; 31 g ai/ha): 30; Plant response rating, Foxtail, Giant ([10]; 31 g ai/ha): 40; Plant response rating, Wheat ([11]; 31 g ai/ha): 0; Plant response rating, Barnyardgrass ([12]; 31 g ai/ha): 30; Plant response rating, Barnyardgrass ([13]; 31 g ai/ha): 30; Plant response rating, Galium ([14]; 31 g ai/ha): 30; Plant response rating, Blackgrass ([15]; 31 g ai/ha): 0; Plant response rating, Ryegrass, Italian ([17]; 31 g ai/ha): 0; Plant response rating, Kochia (kochia (Kochia scoparia) [18]; 31 g ai/ha): 0; Plant response rating, Corn (corn (Zea mays); 31 g ai/ha): 0
2 | CN1CC(c2cccc(Oc3ncc(F)cn3)c2)C(C(=O)Nc2cccc(F)c2F)C1=O (single isomer, unassigned) [Compound 38] | 20 | 70 | 40 | 80 | 50 | 30 | 0 | 80 | 90 | 100 | 50 | 100 | 0 | 90 | 50 | 70 | 60 | 80 | 30 | 90 | Plant response rating, Ragweed [1, 20]: 80; Plant response rating, Ryegrass, Italian [2, 20]: 80; Plant response rating, Ragweed ([3]; 500 g ai/ha): 80; Plant response rating, Pigweed [5, 20]: 70; Plant response rating, Kochia (kochia (Kochia scoparia) [6]; [20]): 60; Plant response rating, Pigweed ([8]; 500 g ai/ha): 100; Plant response rating, Foxtail, Giant [9, 20]: 90; Plant response rating, Foxtail, Giant ([10]; 500 g ai/ha): 100; Plant response rating, Wheat [11, 20]: 70; Plant response rating, Barnyardgrass [12, 20]: 100; Plant response rating, Barnyardgrass ([13]; 500 g ai/ha): 100; Plant response rating, Galium [14, 20]: 70; Plant response rating, Blackgrass [15, 20]: 70; Plant response rating, Ryegrass, Italian ([17]; 500 g ai/ha): 100; Plant response rating, Kochia (kochia (Kochia scoparia) [18]; 500 g ai/ha): 70; Plant response rating, Corn (corn (Zea mays); [20]): 100
3 | O=C1NCC(c2cccc(Oc3ncc(F)cn3)c2)C1C(=O)Nc1cccc(F)c1F (single isomer, unassigned) [Compound 37] | 20 | 0 | 0 | 100 | 40 | 0 | 0 | 60 | 70 | 90 | 20 | 90 | 20 | 90 | 50 | 40 | 30 | 20 | 0 | 70 | Plant response rating, Ragweed [1, 20]: 70; Plant response rating, Ryegrass, Italian [2, 20]: 60; Plant response rating, Ragweed ([3]; 500 g ai/ha): 80; Plant response rating, Pigweed [5, 20]: 70; Plant response rating, Kochia (kochia (Kochia scoparia) [6]; [20]): 50; Plant response rating, Pigweed ([8]; 500 g ai/ha): 80; Plant response rating, Foxtail, Giant [9, 20]: 90; Plant response rating, Foxtail, Giant ([10]; 500 g ai/ha): 100; Plant response rating, Wheat [11, 20]: 70; Plant response rating, Barnyardgrass [12, 20]: 100; Plant response rating, Barnyardgrass ([13]; 500 g ai/ha): 90; Plant response rating, Galium [14, 20]: 70; Plant response rating, Blackgrass [15, 20]: 70; Plant response rating, Ryegrass, Italian ([17]; 500 g ai/ha): 50; Plant response rating, Kochia (kochia (Kochia scoparia) [18]; 500 g ai/ha): 70; Plant response rating, Corn (corn (Zea mays); [20]): 90
4 | CN1CC(c2cccc(Oc3ccc(F)cc3)c2)C(C(=O)Nc2ccccc2F)C1=O (single isomer, unassigned) [Compound 45] | 0 | 0 | 0 | 70 | 30 | 40 | 0 | 40 | 80 | 90 | 0 | 90 | 15 | 80 | 60 | 30 | 40 | 30 | 0 | 0 | Plant response rating, Ragweed [1, 20]: 0; Plant response rating, Ryegrass, Italian [2, 20]: 30; Plant response rating, Ragweed ([3]; 500 g ai/ha): 30; Plant response rating, Pigweed [5, 20]: 60; Plant response rating, Kochia (kochia (Kochia scoparia) [6]; [20]): 60; Plant response rating, Pigweed ([8]; 500 g ai/ha): 70; Plant response rating, Foxtail, Giant [9, 20]: 80; Plant response rating, Foxtail, Giant ([10]; 500 g ai/ha): 90; Plant response rating, Wheat [11, 20]: 20; Plant response rating, Barnyardgrass [12, 20]: 90; Plant response rating, Barnyardgrass ([13]; 500 g ai/ha): 80; Plant response rating, Galium [14, 20]: 60; Plant response rating, Blackgrass [15, 20]: 30; Plant response rating, Ryegrass, Italian ([17]; 500 g ai/ha): 80; Plant response rating, Kochia (kochia (Kochia scoparia) [18]; 500 g ai/ha): 20; Plant response rating, Corn (corn (Zea mays); [20]): 50
5 | O=C1NCC(c2cccc(OCC3CC3)c2)C1C(=O)Nc1ccccc1Cl (stereo not drawn) [Compound 4] | 0 | 0 | 0 | 0 | 0 | 0 | 0 | 0 | 40 | 70 | 0 | 40 | 0 | 60 | 0 | 0 | 0 | 0 | 0 | 0 | Plant response rating, Ragweed [1, 20]: 40; Plant response rating, Ryegrass, Italian [2, 20]: 40; Plant response rating, Ragweed ([3]; 500 g ai/ha): 0; Plant response rating, Pigweed [5, 20]: 30; Plant response rating, Kochia (kochia (Kochia scoparia) [6]; [20]): 0; Plant response rating, Pigweed ([8]; 500 g ai/ha): 20; Plant response rating, Foxtail, Giant [9, 20]: 80; Plant response rating, Foxtail, Giant ([10]; 500 g ai/ha): 90; Plant response rating, Wheat [11, 20]: 0; Plant response rating, Barnyardgrass [12, 20]: 80; Plant response rating, Barnyardgrass ([13]; 500 g ai/ha): 90; Plant response rating, Galium [14, 20]: 0; Plant response rating, Blackgrass [15, 20]: 40; Plant response rating, Ryegrass, Italian ([17]; 500 g ai/ha): 20; Plant response rating, Kochia (kochia (Kochia scoparia) [18]; 500 g ai/ha): 30; Plant response rating, Corn (corn (Zea mays); [20]): 0
